# Results: PubChem BioAssay AID2060494 (Molecular Pharmacology Branch, DTP, NCI, 2025)
# System: 435261-313-R-J1-PDC complex spheroid viability
# Test: Anticancer human tumor 435261-313-R-J1-PDC patient-derived colon adenocarcinoma cell line growth inhibition [GQUAD]
# Settings: for IC50: curve of first compound; for viability, T/C: stronger effect = lower value
# Text: DNA G-quadruplex Stabilizer Agents in Combinations in Complex Spheroids
# A high-throughput screen of multi-cell type tumor spheroids was designed to identify active combinations of DNA G-quadruplex stabilizer agents and targeted small molecules. Complex spheroids include a stromal component modeled by human endothelial cells (HUVEC) and fibroblasts modeled by human mesenchymal stem cells (MSCs). The concentration ranges selected for each drug and investigational agent were based upon clinically achievable concentrations if the clinical Cmax of the agent was known.
# Compounds. The drugs and investigational agents: pidnarulex (CX-5461; NSC782164), APTO-253 (NSC789042), BRACO-19 (NSC847499), peposertib (NSC802822), ceralasertib (NSC780249), elimusertib (NSC800525), camonsertib (NSC841442), AZD-1390 (NSC803789), olaparib (NSC753686), talazoparib (NSC767125), ART-558 (NSC835418), sotorasib (NSC818433), MRTX-1133 (NSC836407), SN-38 (NSC673596), topotecan (NSC609699), etoposide (NSC141540), doxorubicin (NSC123127), gemcitabine (NSC613327), 5-fluorouracil (NSC19893), paclitaxel (NSC125973), vemurafenib (NSC761431), panobinostat (NSC761190), R-306465 (JNJ-16241199; NSC773264), adavosertib (NSC754352), TP-3654 (NSC805149), carboplatin (NSC241240), KSQ-4279 (NSC840948), and staurosporine (NSC755774) were obtained from the National Cancer Institute (NCI) Developmental Therapeutics Program Chemical Repository (34). The FDA-approved anticancer drug set is available from the NCI Developmental Therapeutics Program. […] The stock solutions were prepared in dimethyl sulfoxide (DMSO, Sigma-Aldrich, St. Louis, MO, cat. D2650) at 800-fold the tested concentration and stored at -70 degrees C prior to their use. All drugs and investigational agents were tested over a range starting from a high concentration at or near the clinical Cmax and decreasing in half-log increments. If the clinical Cmax for an agent had not been determined, the highest concentration tested was 10 microM.
# 2.3 Cell Culture. All cells were maintained in an incubator at 37 degrees C and 5% CO2 with 95% humidity. The PDC lines were cultured according to standard operating procedures established by the NCI PDMR. All PDCs were thawed and cultured in Matrigel-coated flasks prepared with a working solution of 1X Ham's F-12 nutrient mix, without supplementation (Invitrogen, cat. 11765054), 100 U/mL penicillin-streptomycin (Invitrogen, cat. 15140122), and 2.5% Matrigel (Corning Inc., cat. 354248) for the first three passages. The 857933-349-R-J2-PDC line was cultured in 6C/Colon 1B media, which includes advanced DMEM/F-12 (Thermo Fisher Scientific, cat. 12634028), 10 mM HEPES (Thermo Fisher Scientific, cat. 15630080), 1X GlutaMAX supplement (Thermo Fisher Scientific, cat. 35050061), 0.1 mg/mL primocin (InvivoGen, cat. ant-pm-2), 10% defined fetal bovine serum, heat inactivated (HyClone Laboratories Inc., cat. SH30070.03HI), 50% L-WRN conditioned media (ATCC, cat. CRL-3276), 1.25 mM N-Acetyl-L-cysteine (Sigma-Aldrich, cat. A9165), 10 mM nicotinamide (Sigma-Aldrich, cat. N0636), 1X B-27 supplement (Thermo Fisher Scientific, cat. 17504044), 1X N-2 supplement (Thermo Fisher Scientific, cat. 17502048), 10 microM Y-27632 dihydrochloride (Tocris Bioscience, cat. 1254), and 50 ng/mL human EGF recombinant protein (Thermo Fisher Scientific, cat. PHG0311). The 485176-168-R4-J1-PDC line was cultured in Panc media, which includes all 6C/Colon 1B media components plus 100 ng/mL human FGF-10 (Thermo Fisher Scientific, cat. 100-26), 500 nM SB-431542 (Selleckchem, cat. S1067), and gastrin (Tocris, cat. 3006).
# […]
# 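Note: spheroids exposed to the agents for seven days before readout.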
# 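Throughout, for viability, T/C: percent of vehicle control viability with DMSO wells as 100%.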
smiles,measurement,setting,value
COc1cc(C2c3cc4c(cc3C(OC3OC5COC(C)OC5C(O)C3O)C3COC(=O)C23)OCO4)cc(OC)c1O (configuration not stated) + Cc1cnc(CNC(=O)c2c(=O)c3ccc(N4CCCN(C)CC4)nc3n3c2sc2ccccc23)cn1,IC50,second compound 0.0316 µM,> 10 µM
same,IC50,second compound 0.1 µM,> 10 µM
same,IC50,second compound 0.316 µM,> 10 µM
same,IC50,second compound 1 µM,< 0.0316 µM
same,IC50,second compound 3.16 µM,< 0.0316 µM
same,IC50,second compound 10 µM,< 0.0316 µM
same,"viability, T/C","second compound 0.0316 µM, first compound 0.0316 µM",77.6%
same,"viability, T/C","second compound 0.0316 µM, first compound 0.1 µM",59.1%
same,"viability, T/C","second compound 0.0316 µM, first compound 0.316 µM",60.8%
same,"viability, T/C","second compound 0.0316 µM, first compound 1 µM",56.3%
same,"viability, T/C","second compound 0.0316 µM, first compound 3.16 µM",55%
same,"viability, T/C","second compound 0.0316 µM, first compound 10 µM",54.2%
same,"viability, T/C","second compound 0.1 µM, first compound 0.0316 µM",86.6%
same,"viability, T/C","second compound 0.1 µM, first compound 0.1 µM",63.6%
same,"viability, T/C","second compound 0.1 µM, first compound 0.316 µM",54.2%
same,"viability, T/C","second compound 0.1 µM, first compound 1 µM",60.7%
same,"viability, T/C","second compound 0.1 µM, first compound 3.16 µM",47.1%
same,"viability, T/C","second compound 0.1 µM, first compound 10 µM",54.5%
same,"viability, T/C","second compound 0.316 µM, first compound 0.0316 µM",48.3%
same,"viability, T/C","second compound 0.316 µM, first compound 0.1 µM",60%
same,"viability, T/C","second compound 0.316 µM, first compound 0.316 µM",53.1%
same,"viability, T/C","second compound 0.316 µM, first compound 1 µM",53%
same,"viability, T/C","second compound 0.316 µM, first compound 3.16 µM",51.8%
same,"viability, T/C","second compound 0.316 µM, first compound 10 µM",50.7%
same,"viability, T/C","second compound 1 µM, first compound 0.0316 µM",31.6%
same,"viability, T/C","second compound 1 µM, first compound 0.1 µM",38.1%
same,"viability, T/C","second compound 1 µM, first compound 0.316 µM",39%
same,"viability, T/C","second compound 1 µM, first compound 1 µM",43%
same,"viability, T/C","second compound 1 µM, first compound 3.16 µM",34.3%
same,"viability, T/C","second compound 1 µM, first compound 10 µM",35.6%
same,"viability, T/C","second compound 3.16 µM, first compound 0.0316 µM",16.7%
same,"viability, T/C","second compound 3.16 µM, first compound 0.1 µM",16.3%
same,"viability, T/C","second compound 3.16 µM, first compound 0.316 µM",11.1%
same,"viability, T/C","second compound 3.16 µM, first compound 1 µM",12%
same,"viability, T/C","second compound 3.16 µM, first compound 3.16 µM",19.7%
same,"viability, T/C","second compound 3.16 µM, first compound 10 µM",5.43%
same,"viability, T/C","second compound 10 µM, first compound 0.0316 µM",0.14%
same,"viability, T/C","second compound 10 µM, first compound 0.1 µM",0.13%
same,"viability, T/C","second compound 10 µM, first compound 0.316 µM",0.12%
same,"viability, T/C","second compound 10 µM, first compound 1 µM",0.12%
same,"viability, T/C","second compound 10 µM, first compound 3.16 µM",0.2%
same,"viability, T/C","second compound 10 µM, first compound 10 µM",0.14%
